According to ChEMBL document CHEMBL3046697, “Syntheses, antifeedant activity, and QSAR analysis of new oxa(thia)diazolyl 3(2H)-pyridazinones” (J Agric Food Chem, 2005):

Assays:
[1] = Hydrophobicity, log P of the compound; type: physicochemical; conditions: octanol/water
Mythimna separata = experiment: Antifeedant activity against second-instar larvae of Mythimna separata (Oriental armyworm) in compound treated leaves assessed as growth inhibition measured after 5 days by chronic growth bioassay; type: functional, organism-based; conditions: 120 h

| SMILES | logP [1] | EC50 (Mythimna separata; read-out: EC50) [µg/mL] | EC50 (Mythimna separata; read-out: pEC50 (converted)) [µM] |
| --- | --- | --- | --- |
| CC(C)(C)n1ncc(OCc2nnc(-c3ccccc3F)o2)c(Cl)c1=O | 2.89 | 16.8 | 16.8 |
| CCCCn1ncc(OCc2nnc(-c3ccc(F)cc3)o2)c(Cl)c1=O | – | 162 | 161 |
| CCCCn1ncc(OCc2nnc(-c3ccc(Cl)cc3)o2)c(Cl)c1=O | – | 224 | 223 |
| CCn1ncc(OCc2nnc(-c3ccccc3)o2)c(Cl)c1=O | – | > 300 | > 300 |
| CCn1ncc(OCc2nnc(-c3ccc(F)cc3)o2)c(Cl)c1=O | – | > 300 | > 300 |
| CC(C)(C)n1ncc(OCc2nnc(-c3c(F)c(F)c(F)c(F)c3F)o2)c(Cl)c1=O | 3.06 | 271 | 271 |
| CC(C)(C)n1ncc(OCc2nnc(-c3cc(F)c(F)cc3F)o2)c(Cl)c1=O | 2.96 | 75.7 | 75.7 |
| COc1c(F)c(F)cc(-c2nnc(COc3cnn(C(C)(C)C)c(=O)c3Cl)o2)c1F | – | > 300 | > 300 |
| CC(C)(C)n1ncc(OCc2nnc(-c3ccc(Cl)cc3F)o2)c(Cl)c1=O | 3.23 | 10.4 | 10.4 |
| CC(C)(C)n1ncc(OCc2nnc(-c3cc(F)c(F)c(F)c3F)o2)c(Cl)c1=O | 3.18 | 241 | 240 |
| CC(C)(C)n1ncc(OCc2nnc(-c3ccc(C(F)(F)F)cc3)o2)c(Cl)c1=O | 3.66 | 34.1 | 33.8 |
| Cc1nnc(COc2cnn(C(C)(C)C)c(=O)c2Cl)o1 | – | > 300 | > 300 |
| CC(C)(C)n1ncc(OCc2nnc(-c3ccco3)o2)c(Cl)c1=O | – | > 300 | > 300 |
| CC(C)(C)n1ncc(OCc2nnc(-c3cccs3)o2)c(Cl)c1=O | – | > 300 | > 300 |
| O=c1c(Cl)c(OCc2nnc(-c3ccccc3)o2)cnn1-c1ccccc1 | – | 91.5 | 91.4 |
| CCCCn1ncc(OCc2nnc(-c3ccccc3)o2)c(Cl)c1=O | – | > 300 | > 300 |
| CC(C)(C)n1ncc(OCc2nnc(-c3cc(F)c(Cl)cc3Cl)o2)c(Cl)c1=O | 3.36 | 23.1 | 23.1 |
| CC(C)(C)n1ncc(SCc2nnc(-c3ccccc3)o2)c(Cl)c1=O | – | > 300 | > 300 |
| CC(C)(C)n1ncc(SCc2nnc(-c3ccc(F)cc3)o2)c(Cl)c1=O | – | 150 | 151 |
| CC(C)(C)n1ncc(SCc2nnc(-c3cccc(F)c3)o2)c(Cl)c1=O | – | 243 | 243 |
| CC(C)(C)n1ncc(SCc2nnc(-c3ccccc3F)o2)c(Cl)c1=O | – | 269 | 270 |
| CC(C)(C)n1ncc(SCc2nnc(-c3ccc(Cl)cc3)o2)c(Cl)c1=O | – | 180 | 180 |
| Cc1cc(C)cc(-c2nnc(CSc3cnn(C(C)(C)C)c(=O)c3Cl)o2)c1 | – | > 300 | > 300 |
| Cc1cccc(-c2nnc(CSc3cnn(C(C)(C)C)c(=O)c3Cl)o2)c1 | – | > 300 | > 300 |
| CC(C)(C)n1ncc(SCc2nnc(-c3ccc([N+](=O)[O-])cc3)o2)c(Cl)c1=O | – | > 300 | > 300 |

| SMILES | logP [1] | EC50 (Mythimna separata; read-out: EC50) [µg/mL] | EC50 (Mythimna separata; read-out: pEC50 (converted)) [µM] |
| --- | --- | --- | --- |
| CC(C)(C)n1ncc(OCc2nnc(-c3ccc(Br)cc3)o2)c(Cl)c1=O | 3.21 | 21.4 | 21.4 |
| CC(C)(C)n1ncc(OCc2nnc(-c3ccc(Cl)cc3Cl)o2)c(Cl)c1=O | 3.52 | 27.8 | 27.8 |
| CC(C)(C)n1ncc(OCc2nnc(-c3ccccc3Cl)o2)c(Cl)c1=O | 3.19 | 61.2 | 61.2 |
| CC(C)(C)n1ncc(OCc2nnc(-c3ccccc3)s2)c(Cl)c1=O | – | 200 | 200 |
| CC(C)(C)n1ncc(OCc2nnc(-c3ccc(F)cc3)s2)c(Cl)c1=O | – | 21.5 | 21.5 |
| CC(C)(C)n1ncc(OCc2nnc(-c3ccccc3F)s2)c(Cl)c1=O | – | 121 | 121 |
| CC(C)(C)n1ncc(OCc2nnc(-c3ccc(Cl)cc3)s2)c(Cl)c1=O | – | 106 | 106 |
| CC(C)(C)n1ncc(OCc2nnc(-c3ccc(Cl)cc3Cl)s2)c(Cl)c1=O | – | 62.2 | 62.2 |
| CC(C)(C)n1ncc(OCc2nnc(-c3cc(F)c(Cl)cc3Cl)s2)c(Cl)c1=O | – | 67.1 | 67.1 |
| Cc1cccc(-c2nnc(COc3cnn(C(C)(C)C)c(=O)c3Cl)s2)c1 | – | > 300 | > 300 |
| Cc1cc(C)cc(-c2nnc(COc3cnn(C(C)(C)C)c(=O)c3Cl)s2)c1 | – | > 300 | > 300 |
| CC(C)(C)n1ncc(OCc2nnc(-c3c(F)cccc3F)o2)c(Cl)c1=O | 2.75 | 45.4 | 45.4 |
| CC(C)(C)n1ncc(OCc2nnc(-c3cc(F)c(Cl)c([N+](=O)[O-])c3Cl)o2)c(Cl)c1=O | – | > 300 | > 300 |
| CC(C)(C)n1ncc(OCc2nnc(-c3ccccc3)o2)c(Cl)c1=O | 2.95 | 12.2 | 12.2 |
| CC(C)(C)n1ncc(OCc2nnc(-c3ccc([N+](=O)[O-])cc3)o2)c(Cl)c1=O | – | > 300 | > 300 |
| Cc1cccc(-c2nnc(COc3cnn(C(C)(C)C)c(=O)c3Cl)o2)c1 | 3.02 | 116 | 116 |
| Cc1cc(C)cc(-c2nnc(COc3cnn(C(C)(C)C)c(=O)c3Cl)o2)c1 | – | > 300 | > 300 |
| Cc1ccc(-c2nnc(COc3cnn(C(C)(C)C)c(=O)c3Cl)o2)cc1 | 3.01 | 19.9 | 19.9 |
| CC(C)(C)n1ncc(OCc2nnc(-c3ccc(F)cc3)o2)c(Cl)c1=O | 2.69 | 5.2 | 5.2 |
| CCc1ccc(-c2nnc(COc3cnn(C(C)(C)C)c(=O)c3Cl)o2)cc1 | 3.52 | 14.5 | 14.5 |
| CC(C)(C)n1ncc(OCc2nnc(-c3ccc(Cl)cc3)o2)c(Cl)c1=O | 3.09 | 1.9 | 1.9 |
| COc1ccc(-c2nnc(COc3cnn(C(C)(C)C)c(=O)c3Cl)o2)cc1 | 3.52 | 17.7 | 17.7 |
| CC(C)(C)n1ncc(OCc2nnc(-c3cccc(F)c3)o2)c(Cl)c1=O | 2.69 | 7.1 | 7.1 |
| C/C=C(\C)C(=O)O[C@H]1C[C@@H](OC(C)=O)[C@@]2(C(=O)OC)CO[C@H]3[C@@H](O)[C@@](C)([C@]45O[C@@]4(C)[C@@H]4C[C@H]5O[C@@H]5OC=C[C@@]54O)[C@H]4[C@]1(CO[C@]4(O)C(=O)OC)[C@@H]32 [AZADIRACHTIN A] | – | 0.58 | 0.579 |
